Values after ≈ are worked out from the molar mass of the structure shown. Active and inactive are the calls of the source. The calls are words filed in the database; no cut-off is given here. Residues, ends and D or L forms follow the SMILES beside them.
What was measured:
[1] = system: Bordetella bronchiseptica; test: Antimicrobial activity against Bordetella bronchiseptica CUN11844-99 by broth microdilution method; type: functional
Pseudomonas aeruginosa [2] = test: Antimicrobial activity against Pseudomonas aeruginosa CUN 4158-02 by broth microdilution method; type: functional
Pseudomonas aeruginosa [3] = test: Antimicrobial activity against Pseudomonas aeruginosa ATCC 27853 by broth microdilution method; type: functional
Escherichia coli = test: Antimicrobial activity against Escherichia coli ATCC 25922 by broth microdilution method; type: functional
Staphylococcus aureus [4] = test: Antimicrobial activity against Staphylococcus aureus ATCC 25923 by broth microdilution method; type: functional
Staphylococcus aureus [5] = test: Antimicrobial activity against methicillin-resistant Staphylococcus aureus ATCC 43300 by broth microdilution method; type: functional
Staphylococcus aureus [6] = test: Antimicrobial activity against methicillin-resistant Staphylococcus aureus CUN 3792-99 by broth microdilution method; type: functional
[7] = system: Stenotrophomonas maltophilia; test: Antimicrobial activity against […] Stenotrophomonas maltophilia CUN 3998-00 by broth microdilution method; type: functional
Acinetobacter baumannii = test: Antimicrobial activity against […] Acinetobacter baumannii ATCC 19606 by broth microdilution method; type: functional
Homo sapiens = species on record: Homo sapiens; test: Antiinflammatory activity in human MNC assessed as inhibition of LPS-induced TNFalpha production at compound: LPS ratio of 100:1 weight percent by ELISA; type: functional
[8] = Toxicity in human RBC assessed as hemolysis upto 25 ug/ml; type: cell-based; details: erythrocyte

Row | SMILES | MIC [1] | MIC (Pseudomonas aeruginosa [2]) | MIC (Pseudomonas aeruginosa [3]) | MIC (Escherichia coli) | MIC (Staphylococcus aureus [4]) | MIC (Staphylococcus aureus [5]) | MIC (Staphylococcus aureus [6]) | MIC [7] | MIC (Acinetobacter baumannii) | inhibition (Homo sapiens) | Activity [8]
1 | N=C(N)NCCC[C@H](NC(=O)[C@H](Cc1ccc(O)cc1)NC(=O)[C@H](CCCNC(=N)N)NC(=O)[C@H](Cc1c[nH]c2ccccc12)NC(=O)[C@H](CCCNC(=N)N)NC(=O)[C@H](Cc1ccccc1)NC(=O)[C@H](CCCCN)NC(=O)[C@H](CCCCN)NC(=O)[C@H](Cc1c[nH]c2ccccc12)NC(=O)[C@H](CCCNC(=N)N)NC(=O)[C@H](CCCNC(=N)N)NC(=O)[C@H](CS)NC(=O)CN)C(=O)NCC(=O)N[C@@H](CCCCN)C(=O)N[C@@H](Cc1ccccc1)C(=O)N[C@@H](Cc1c[nH]c2ccccc12)C(=O)N[C@@H](Cc1ccccc1)C(=O)N[C@@H](Cc1c[nH]c2ccccc12)C(=O)N[C@@H](CS)C(=O)NCC(=O)O (H-GCRRWKKFRWRYRGKFWFWCG-OH) | 32 µg/mL (≈ 11 µM) | 128 µg/mL (≈ 44 µM) | 128 µg/mL (≈ 44 µM) | 128 µg/mL (≈ 44 µM) | 64 µg/mL (≈ 22 µM) | 32 µg/mL (≈ 11 µM) | 64 µg/mL (≈ 22 µM) | 64 µg/mL (≈ 22 µM) | 64 µg/mL (≈ 22 µM) |  | 
2 | N=C(N)NCCC[C@H](NC(=O)[C@H](Cc1ccc(O)cc1)NC(=O)[C@H](CCCCN)NC(=O)[C@H](CCCCN)NC(=O)CN)C(=O)N[C@@H](CCCNC(=N)N)C(=O)N[C@@H](Cc1ccccc1)C(=O)N[C@@H](CCCNC(=N)N)C(=O)N[C@@H](Cc1c[nH]c2ccccc12)C(=O)N[C@@H](CCCCN)C(=O)N[C@@H](Cc1ccccc1)C(=O)N[C@@H](CCCCN)C(=O)NCC(=O)N[C@@H](CCCCN)C(=O)N[C@@H](Cc1c[nH]c2ccccc12)C(=O)N[C@@H](Cc1ccccc1)C(=O)N[C@@H](Cc1c[nH]c2ccccc12)C(=O)N[C@@H](Cc1ccccc1)C(=O)NCC(=O)O (H-GKKYRRFRWKFKGKWFWFG-OH) | 4 µg/mL (≈ 1.53 µM) | 16 µg/mL (≈ 6.13 µM) | 16 µg/mL (≈ 6.13 µM) | 16 µg/mL (≈ 6.13 µM) | 16 µg/mL (≈ 6.13 µM) | 16 µg/mL (≈ 6.13 µM) | 16 µg/mL (≈ 6.13 µM) | 32 µg/mL (≈ 12.3 µM) | 16 µg/mL (≈ 6.13 µM) |  | 
3 | N=C(N)NCCC[C@H](NC(=O)CNC(=O)[C@H](CCCNC(=N)N)NC(=O)[C@H](Cc1ccc(O)cc1)NC(=O)[C@H](CCCNC(=N)N)NC(=O)[C@H](Cc1c[nH]c2ccccc12)NC(=O)[C@H](CCCCN)NC(=O)[C@H](CCCCN)NC(=O)[C@H](Cc1ccccc1)NC(=O)[C@H](CCCCN)NC(=O)[C@H](CCCCN)NC(=O)[C@H](Cc1ccccc1)NC(=O)[C@H](CCCNC(=N)N)NC(=O)[C@H](CCCNC(=N)N)NC(=O)[C@H](CS)NC(=O)CN)C(=O)N[C@@H](Cc1ccccc1)C(=O)N[C@@H](Cc1c[nH]c2ccccc12)C(=O)N[C@@H](Cc1ccccc1)C(=O)N[C@@H](Cc1c[nH]c2ccccc12)C(=O)N[C@@H](CS)C(=O)N[C@@H](Cc1ccccc1)C(=O)NCC(=O)O (H-GCRRFKKFKKWRYRGRFWFWCFG-OH) | 32 µg/mL (≈ 10.2 µM) | 128 µg/mL (≈ 40.7 µM) | 128 µg/mL (≈ 40.7 µM) | 64 µg/mL (≈ 20.3 µM) | 64 µg/mL (≈ 20.3 µM) | 32 µg/mL (≈ 10.2 µM) | 64 µg/mL (≈ 20.3 µM) | 64 µg/mL (≈ 20.3 µM) | 64 µg/mL (≈ 20.3 µM) |  | 
4 | CC(C)C[C@H](NC(=O)[C@H](CCCNC(=N)N)NC(=O)[C@H](CCCNC(=N)N)NC(=O)[C@H](Cc1ccccc1)NC(=O)[C@H](CCCCN)NC(=O)[C@H](CCCCN)NC(=O)[C@H](CS)NC(=O)CN)C(=O)N[C@@H](CCCCN)C(=O)N[C@@H](Cc1c[nH]c2ccccc12)C(=O)N[C@@H](CCCCN)C(=O)N[C@@H](Cc1ccc(O)cc1)C(=O)N[C@@H](CCCCN)C(=O)NCC(=O)N[C@@H](CCCCN)C(=O)N[C@@H](Cc1ccccc1)C(=O)N[C@@H](Cc1c[nH]c2ccccc12)C(=O)N[C@@H](Cc1ccccc1)C(=O)N[C@@H](Cc1c[nH]c2ccccc12)C(=O)N[C@@H](CS)C(=O)NCC(=O)O (H-GCKKFRRLKWKYKGKFWFWCG-OH) | 4 µg/mL (≈ 1.45 µM) | 256 µg/mL (≈ 93 µM) | 256 µg/mL (≈ 93 µM) | 64 µg/mL (≈ 23.2 µM) | 32 µg/mL (≈ 11.6 µM) | 64 µg/mL (≈ 23.2 µM) | 1020 µg/mL (≈ 372 µM) | 512 µg/mL (≈ 186 µM) | 64 µg/mL (≈ 23.2 µM) | Active | 
5 | N=C(N)NCCC[C@H](NC(=O)[C@H](Cc1ccc(O)cc1)NC(=O)[C@H](CCCCN)NC(=O)[C@H](CCCCN)NC(=O)CN)C(=O)N[C@@H](CCCNC(=N)N)C(=O)N[C@@H](Cc1ccccc1)C(=O)N[C@@H](Cc1c[nH]c2ccccc12)C(=O)N[C@@H](CCCCN)C(=O)N[C@@H](Cc1ccccc1)C(=O)N[C@@H](CCCCN)C(=O)NCC(=O)N[C@@H](CCCCN)C(=O)N[C@@H](Cc1c[nH]c2ccccc12)C(=O)N[C@@H](Cc1ccccc1)C(=O)N[C@@H](Cc1c[nH]c2ccccc12)C(=O)N[C@@H](Cc1ccccc1)C(=O)N[C@@H](Cc1c[nH]c2ccccc12)C(=O)NCC(=O)O (H-GKKYRRFWKFKGKWFWFWG-OH) | 8 µg/mL (≈ 3.03 µM) | 32 µg/mL (≈ 12.1 µM) | 8 µg/mL (≈ 3.03 µM) | 1020 µg/mL (≈ 388 µM) | 1020 µg/mL (≈ 388 µM) | 16 µg/mL (≈ 6.06 µM) | 16 µg/mL (≈ 6.06 µM) | 64 µg/mL (≈ 24.3 µM) | 16 µg/mL (≈ 6.06 µM) |  | 
6 | N=C(N)NCCC[C@H](NC(=O)[C@H](Cc1ccc(O)cc1)NC(=O)[C@H](CCCCN)NC(=O)[C@H](CCCCN)NC(=O)[C@H](CS)NC(=O)CN)C(=O)N[C@@H](CCCNC(=N)N)C(=O)N[C@@H](Cc1ccccc1)C(=O)N[C@@H](CCCNC(=N)N)C(=O)N[C@@H](Cc1c[nH]c2ccccc12)C(=O)N[C@@H](CCCCN)C(=O)N[C@@H](Cc1ccccc1)C(=O)N[C@@H](CCCCN)C(=O)NCC(=O)N[C@@H](CCCCN)C(=O)N[C@@H](Cc1ccccc1)C(=O)N[C@@H](Cc1c[nH]c2ccccc12)C(=O)N[C@@H](Cc1ccccc1)C(=O)N[C@@H](Cc1c[nH]c2ccccc12)C(=O)O (H-GCKKYRRFRWKFKGKFWFW-OH) | 64 µg/mL (≈ 24.1 µM) | 128 µg/mL (≈ 48.2 µM) | 64 µg/mL (≈ 24.1 µM) | 64 µg/mL (≈ 24.1 µM) | 64 µg/mL (≈ 24.1 µM) | 32 µg/mL (≈ 12.1 µM) | 64 µg/mL (≈ 24.1 µM) | 128 µg/mL (≈ 48.2 µM) | 64 µg/mL (≈ 24.1 µM) | Active | Non-toxic
